Measured values as given in PubChem BioAssay AID2060884 (Molecular Pharmacology Branch, DTP, NCI, 2025).

System: NCI-H929 complex spheroids, viability % test/control
Experiment: Anticancer human tumor NCI-H929 cell line growth inhibition [RAS];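 further: compound exposure lasted seven days before viability was read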;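 on viability, T/C: 100% = DMSO vehicle control viability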
Settings: for viability, T/C: stronger effect = lower value
Method in brief: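 Tumour cells grown as complex spheroids with HUVEC endothelial cells and mesenchymal stem cells, treated with RAS pathway inhibitor combinations. Each agent spans half-log steps from near clinical Cmax, or 10 microM where Cmax is unknown.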

[1] = curve of first compound, second compound 0.000949 µM
[2] = curve of first compound, second compound 0.003 µM
[3] = curve of first compound, second compound 0.00949 µM
[4] = curve of first compound, second compound 0.03 µM
[5] = curve of first compound, second compound 0.0949 µM
[6] = curve of first compound, second compound 0.3 µM
[7] = second compound 0.000949 µM, first compound 0.00316 µM
[8] = second compound 0.000949 µM, first compound 0.01 µM
[9] = second compound 0.000949 µM, first compound 0.0316 µM
[10] = second compound 0.000949 µM, first compound 0.1 µM
[11] = second compound 0.003 µM, first compound 0.00316 µM
[12] = second compound 0.003 µM, first compound 0.01 µM
[13] = second compound 0.003 µM, first compound 0.0316 µM
[14] = second compound 0.003 µM, first compound 0.1 µM
[15] = second compound 0.00949 µM, first compound 0.00316 µM
[16] = second compound 0.00949 µM, first compound 0.01 µM
[17] = second compound 0.00949 µM, first compound 0.0316 µM
[18] = second compound 0.00949 µM, first compound 0.1 µM
[19] = second compound 0.03 µM, first compound 0.00316 µM
[20] = second compound 0.03 µM, first compound 0.01 µM
[21] = second compound 0.03 µM, first compound 0.0316 µM
[22] = second compound 0.03 µM, first compound 0.1 µM
[23] = second compound 0.0949 µM, first compound 0.00316 µM
[24] = second compound 0.0949 µM, first compound 0.01 µM
[25] = second compound 0.0949 µM, first compound 0.0316 µM
[26] = second compound 0.0949 µM, first compound 0.1 µM
[27] = second compound 0.3 µM, first compound 0.00316 µM
[28] = second compound 0.3 µM, first compound 0.01 µM
[29] = second compound 0.3 µM, first compound 0.0316 µM
[30] = second compound 0.3 µM, first compound 0.1 µM

## CC(C)n1nc(-c2ccc3oc(N)nc3c2)c2c(N)ncnc21 + CCn1c(-c2cc(N3CCN(C)CC3)cnc2C(C)OC)c2c3cc(ccc31)-c1csc(n1)CC(NC(=O)C1CC1C)C(=O)N1CCCC(N1)C(=O)OCC(C)(C)C2
[1]
  IC50: 0.055 µM
[2]
  IC50: 0.055 µM
[3]
  IC50: 0.0292 µM
[4]
  IC50: 0.00258 µM
[5]
  IC50: < 0.000316 µM
[6]
  IC50: < 0.000316 µM
Second compound 0.000949 µM, first compound 0.000316 µM
  viability, T/C: 103%
Second compound 0.000949 µM, first compound 0.001 µM
  viability, T/C: 101%
[7]
  viability, T/C: 111%
[8]
  viability, T/C: 110%
[9]
  viability, T/C: 93.2%
[10]
  viability, T/C: 3.1%
Second compound 0.003 µM, first compound 0.000316 µM
  viability, T/C: 97.5%
Second compound 0.003 µM, first compound 0.001 µM
  viability, T/C: 95.7%
[11]
  viability, T/C: 101%
[12]
  viability, T/C: 114%
[13]
  viability, T/C: 93%
[14]
  viability, T/C: 3.74%
Second compound 0.00949 µM, first compound 0.000316 µM
  viability, T/C: 108%
Second compound 0.00949 µM, first compound 0.001 µM
  viability, T/C: 114%
[15]
  viability, T/C: 119%
[16]
  viability, T/C: 120%
[17]
  viability, T/C: 45.1%
[18]
  viability, T/C: 1.87%
Second compound 0.03 µM, first compound 0.000316 µM
  viability, T/C: 74.5%
Second compound 0.03 µM, first compound 0.001 µM
  viability, T/C: 74.2%
[19]
  viability, T/C: 39.7%
[20]
  viability, T/C: 26.1%
[21]
  viability, T/C: 4.36%
[22]
  viability, T/C: 0.46%
Second compound 0.0949 µM, first compound 0.000316 µM
  viability, T/C: 7.99%
Second compound 0.0949 µM, first compound 0.001 µM
  viability, T/C: 7.3%
[23]
  viability, T/C: 2.87%
[24]
  viability, T/C: 1.59%
[25]
  viability, T/C: 0.69%
[26]
  viability, T/C: 0.3%
Second compound 0.3 µM, first compound 0.000316 µM
  viability, T/C: 3.49%
Second compound 0.3 µM, first compound 0.001 µM
  viability, T/C: 2.63%
[27]
  viability, T/C: 1.48%
[28]
  viability, T/C: 0.92%
[29]
  viability, T/C: 0.47%
[30]
  viability, T/C: 0.34%

## CC(=O)OC12COC1CC(O)C1(C)C(=O)C(O)C3=C(C)C(OC(=O)C(O)C(NC(=O)OC(C)(C)C)c4ccccc4)CC(O)(C(OC(=O)c4ccccc4)C21)C3(C)C (stereo unspecified)
Compound 0.0316 µM
  viability, T/C: 1.05% [middle of 4 runs]
Compound 0.1 µM
  viability, T/C: 1.29% [middle of 4 runs]
Compound 0.316 µM
  viability, T/C: 1.47% [middle of 4 runs]
Compound 1 µM
  viability, T/C: 1.41% [middle of 4 runs]
Compound 3.16 µM
  viability, T/C: 1.6% [middle of 4 runs]
Compound 10 µM
  viability, T/C: 0.8% [middle of 4 runs]
Curve of compound
  IC50: < 0.0316 µM

## CCC(CC)c1cc(NC2CCC(N)C2)n2nccc2n1 (stereo unspecified)
Compound 0.0316 µM
  viability, T/C: 101% [middle of 4 runs]
Compound 0.1 µM
  viability, T/C: 98% [middle of 4 runs]
Compound 0.316 µM
  viability, T/C: 99.4% [middle of 4 runs]
Compound 3.16 µM
  viability, T/C: 1.51% [middle of 4 runs]
Compound 10 µM
  viability, T/C: 0.97% [middle of 4 runs]
Curve of compound
  IC50: 1.74 µM [middle of 4 runs]

## CCC(CC)c1cc(NC2CCC(N)C2)n2nccc2n1 (stereo unspecified) + C#Cc1c(F)ccc2cc(O)cc(-c3ncc4c(N5CC6CCC(C5)N6)nc(OCC56CCCN5CC(F)C6)nc4c3F)c12
Curve of first compound, second compound 0.0316 µM
  IC50: 1.79 µM
Curve of first compound, second compound 0.1 µM
  IC50: 1.8 µM
Curve of first compound, second compound 0.316 µM
  IC50: 1.79 µM
Curve of first compound, second compound 1 µM
  IC50: 1.78 µM
Curve of first compound, second compound 3.16 µM
  IC50: 1.79 µM
Curve of first compound, second compound 10 µM
  IC50: 1.82 µM
Second compound 0.0316 µM, first compound 0.0316 µM
  viability, T/C: 95.1%
Second compound 0.0316 µM, first compound 0.1 µM
  viability, T/C: 95.2%
Second compound 0.0316 µM, first compound 0.316 µM
  viability, T/C: 101%
Second compound 0.0316 µM, first compound 1 µM
  viability, T/C: 109%
Second compound 0.0316 µM, first compound 3.16 µM
  viability, T/C: 1.07%
Second compound 0.0316 µM, first compound 10 µM
  viability, T/C: 0.31%
Second compound 0.1 µM, first compound 0.0316 µM
  viability, T/C: 97.2%
Second compound 0.1 µM, first compound 0.1 µM
  viability, T/C: 97.7%
Second compound 0.1 µM, first compound 0.316 µM
  viability, T/C: 99.7%
Second compound 0.1 µM, first compound 1 µM
  viability, T/C: 110%
Second compound 0.1 µM, first compound 3.16 µM
  viability, T/C: 1.11%
Second compound 0.1 µM, first compound 10 µM
  viability, T/C: 0.27%
Second compound 0.316 µM, first compound 0.0316 µM
  viability, T/C: 95.4%
Second compound 0.316 µM, first compound 0.1 µM
  viability, T/C: 98.1%
Second compound 0.316 µM, first compound 0.316 µM
  viability, T/C: 97.6%
Second compound 0.316 µM, first compound 1 µM
  viability, T/C: 113%
Second compound 0.316 µM, first compound 3.16 µM
  viability, T/C: 0.58%
Second compound 0.316 µM, first compound 10 µM
  viability, T/C: 0.23%
Second compound 1 µM, first compound 0.0316 µM
  viability, T/C: 93.8%
Second compound 1 µM, first compound 0.1 µM
  viability, T/C: 95.7%
Second compound 1 µM, first compound 0.316 µM
  viability, T/C: 99.7%
Second compound 1 µM, first compound 1 µM
  viability, T/C: 111%
Second compound 1 µM, first compound 3.16 µM
  viability, T/C: 0.22%
Second compound 1 µM, first compound 10 µM
  viability, T/C: 0.66%
Second compound 3.16 µM, first compound 0.0316 µM
  viability, T/C: 94.1%
Second compound 3.16 µM, first compound 0.1 µM
  viability, T/C: 98%
Second compound 3.16 µM, first compound 0.316 µM
  viability, T/C: 96.4%
Second compound 3.16 µM, first compound 1 µM
  viability, T/C: 113%
Second compound 3.16 µM, first compound 3.16 µM
  viability, T/C: 1.09%
Second compound 3.16 µM, first compound 10 µM
  viability, T/C: 0.81%
Second compound 10 µM, first compound 0.0316 µM
  viability, T/C: 102%
Second compound 10 µM, first compound 0.1 µM
  viability, T/C: 101%
Second compound 10 µM, first compound 0.316 µM
  viability, T/C: 99.1%
Second compound 10 µM, first compound 1 µM
  viability, T/C: 111%
Second compound 10 µM, first compound 3.16 µM
  viability, T/C: 0.7%
Second compound 10 µM, first compound 10 µM
  viability, T/C: 0.12%

## C=CC(=O)Nc1cc(Nc2nccc(-c3cn(C)c4ccccc34)n2)c(OC)cc1N(C)CCN(C)C + CCn1c(-c2cccnc2C(C)OC)c2c3cc(ccc31)N1CCOC(CC(NC(=O)C(C(C)C)N(C)C(=O)C3(F)CCN(C(=O)C#CC(C)(C)N(C)C)CC3)C(=O)N3CCCC(N3)C(=O)OCC(C)(C)C2)C1
[1]
  IC50: > 1 µM
[2]
  IC50: > 1 µM
[3]
  IC50: > 1 µM
[4]
  IC50: > 1 µM
[5]
  IC50: > 1 µM
[6]
  IC50: > 1 µM
[7]
  viability, T/C: 105%
[8]
  viability, T/C: 98.3%
[9]
  viability, T/C: 110%
[10]
  viability, T/C: 100%
Second compound 0.000949 µM, first compound 0.316 µM
  viability, T/C: 106%
Second compound 0.000949 µM, first compound 1 µM
  viability, T/C: 100%
[11]
  viability, T/C: 101%
[12]
  viability, T/C: 103%
[13]
  viability, T/C: 103%
[14]
  viability, T/C: 102%
Second compound 0.003 µM, first compound 0.316 µM
  viability, T/C: 106%
Second compound 0.003 µM, first compound 1 µM
  viability, T/C: 103%
[15]
  viability, T/C: 99.2%
[16]
  viability, T/C: 101%
[17]
  viability, T/C: 107%
[18]
  viability, T/C: 103%
Second compound 0.00949 µM, first compound 0.316 µM
  viability, T/C: 107%
Second compound 0.00949 µM, first compound 1 µM
  viability, T/C: 103%
[19]
  viability, T/C: 90.5%
[20]
  viability, T/C: 100%
[21]
  viability, T/C: 108%
[22]
  viability, T/C: 107%
Second compound 0.03 µM, first compound 0.316 µM
  viability, T/C: 110%
Second compound 0.03 µM, first compound 1 µM
  viability, T/C: 102%
[23]
  viability, T/C: 95.6%
[24]
  viability, T/C: 102%
[25]
  viability, T/C: 104%
[26]
  viability, T/C: 106%
Second compound 0.0949 µM, first compound 0.316 µM
  viability, T/C: 107%
Second compound 0.0949 µM, first compound 1 µM
  viability, T/C: 98.3%
[27]
  viability, T/C: 99.8%
[28]
  viability, T/C: 102%
[29]
  viability, T/C: 103%
[30]
  viability, T/C: 107%
Second compound 0.3 µM, first compound 0.316 µM
  viability, T/C: 105%
Second compound 0.3 µM, first compound 1 µM
  viability, T/C: 101%

## Cc1nc(N2CCC3(CC2)COC(C)C3N)c(CO)nc1Sc1ccnc(N)c1Cl (stereo unspecified)
Compound 0.0316 µM
  viability, T/C: 110% [middle of 4 runs]
Compound 0.1 µM
  viability, T/C: 99% [middle of 4 runs]
Compound 0.316 µM
  viability, T/C: 107% [middle of 4 runs]
Compound 1 µM
  viability, T/C: 100% [middle of 4 runs]
Compound 3.16 µM
  viability, T/C: 105% [middle of 4 runs]
Compound 10 µM
  viability, T/C: 103% [middle of 4 runs]
Curve of compound
  IC50: > 10 µM
